Where “and” joins values, the source holds several entries; their conditions need not be identical. Equal values may be shown once.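 Compound exposure: 48 hours, 5 concentrations, 96-well plates. Abbreviation: GI50, concentration required for 50% inhibition of growth.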 Calls of active or inactive are those of the source. Cut-off read from the data, not from the text of the source: active = GI50 up to about 1.1 µM and inactive = higher.
Tests used:
Assay in all cases: NCI anticancer screen, dose series, 48 h
[1] = tested on: HT-29
[2] = tested on: MOLT-4
[3] = tested on: ACHN
[4] = tested on: OVCAR-8
[5] = tested on: SK-MEL-2
[6] = tested on: SW-620
[7] = tested on: Malme-3M
[8] = tested on: BT-549
[9] = tested on: HCT-15
[10] = tested on: SK-MEL-5
[11] = tested on: NCI-H23
[12] = tested on: PC-3
[13] = tested on: EKVX
[14] = tested on: M14
[15] = tested on: RXF 393
[16] = tested on: MDA-N
[17] = tested on: HOP-92
[18] = tested on: OVCAR-5
[19] = tested on: K562
[20] = tested on: SF-539

SMILES	GI50 [1]	GI50 [2]	GI50 [3]	GI50 [4]	GI50 [5]	GI50 [6]	GI50 [7]	GI50 [8]	GI50 [9]	GI50 [10]	GI50 [11]	GI50 [12]	GI50 [13]	GI50 [14]	GI50 [15]	GI50 [16]	GI50 [17]	GI50 [18]	GI50 [19]	GI50 [20]
CCOC(=O)C1(O)C(=O)C2=C3C(=O)OC(C4OC(=O)c5c(c(O)c(O)c(O)c5C31)-c1c(cc(O)c(O)c1O)C(=O)OC1COC(=O)c3cc(O)c(O)c(O)c3-c3c(cc(O)c(O)c3O)C(=O)OC14)[C@@H]2O (some centres not stated)	18.5 µM (inactive)	22 µM (inactive)	17.8 µM (inactive)	19.8 µM (inactive)	25.7 µM (inactive)	20.7 µM (inactive)	26.9 µM (inactive)	18.8 µM (inactive)	17.6 µM	14.3 µM (inactive)	16.3 µM (inactive)	46 µM (inactive)	13.4 µM (inactive)	21.8 µM (inactive)	17.5 µM (inactive)	14.9 µM (inactive)	23 µM (inactive)	15.9 µM (inactive)	20.7 µM (inactive)	
CN(C)CC1=Nc2cccc3cccc(c23)N1	22.8 µM (inactive)		14.9 µM (inactive)	33.8 µM (inactive)	17.4 µM (inactive)	4.08 µM (inactive)	22 µM (inactive)	17.6 µM (inactive)	23.8 µM	15.4 µM (inactive)	22.9 µM (inactive)	17 µM (inactive)	17.2 µM (inactive)	19.5 µM (inactive)	17.9 µM (inactive)	18.4 µM (inactive)	18.8 µM (inactive)	17.4 µM (inactive)	16.7 µM (inactive)	19.8 µM (inactive)
COC(=O)/N=[N+](\[O-])C(c1ccc(OC)cc1)C1CCCCC1 (configuration not stated)	1.29 µM (inactive)	2.87 µM (inactive)	2.56 µM (inactive)	4.75 µM (inactive)	13.3 µM (inactive)	3.4 µM (inactive)	2.02 µM (inactive)	8.39 µM (inactive)	1.26 µM	2.08 µM (inactive)	0.664 µM (active)	1.69 µM (inactive)	0.991 µM (active)	2.99 µM (inactive)	9.18 µM (inactive)	2.03 µM (inactive)	5.85 µM (inactive)	2.58 µM (inactive)	2.67 µM (inactive)	12.3 µM (inactive)
CC1OC(OC2C(OC(=O)[C@]34CCC(C)(C)C[C@H]3C3=CC[C@@H]5[C@@]6(C)CC[C@H](OC7OC(CO)C(O)C(O)C7OC7OC(CO)C(O)C(O)C7O)C(C)(C)[C@@H]6CC[C@@]5(C)[C@]3(C)CC4)OCC(O)C2O)C(O)C(O)C1OC1OCC(O)C(OC2OCC(O)C(O)C2O)C1O (some centres not stated)	3.02 µM (inactive) and 3.33 µM (inactive)		5.98 µM (inactive) and 4.8 µM (inactive)	7.74 µM (inactive) and 11.6 µM (inactive)	3.01 µM (inactive) and 2.9 µM (inactive)	10.4 µM (inactive) and 11 µM (inactive)	2.49 µM (inactive) and 2.52 µM (inactive)	3.51 µM (inactive) and 3.82 µM (inactive)	12.9 µM and 13 µM	2.82 µM (inactive) and 3.24 µM (inactive)	2.42 µM (inactive) and 3.1 µM (inactive)	6.62 µM (inactive) and 5.32 µM (inactive)	2.44 µM (inactive) and 2.97 µM (inactive)	1.97 µM (inactive) and 1.79 µM (inactive)	9.86 µM (inactive) and 6.75 µM (inactive)	1.64 µM (inactive) and 1.88 µM (inactive)	1.92 µM (inactive) and 2.15 µM (inactive)	4.86 µM (inactive) and 5.37 µM (inactive)	4.6 µM (inactive) and 3.77 µM (inactive)	29.2 µM (inactive) and 19.5 µM (inactive)
CC1(C)CCC[C@]2(C)[C@@H]1CC[C@@]13O[C@@H]1C1=C(CO)C(=O)O[C@]14O[C@@H]4[C@@H]23	12.4 µM (inactive)	15.1 µM (inactive)	14.3 µM (inactive)	12.9 µM (inactive)	13.9 µM (inactive)	12.8 µM (inactive)	17 µM (inactive)	14.7 µM (inactive)	14.5 µM	13.2 µM (inactive)	11.7 µM (inactive)	9.1 µM (inactive)	11.9 µM (inactive)	10.8 µM (inactive)	8.71 µM (inactive)	5.78 µM (inactive)	14 µM (inactive)	15.7 µM (inactive)	> 41 µM (inactive)	17.3 µM (inactive)
Oc1cc2c3c(c1)c1cc4c(cc1c[n+]3CC2)OCO4	4.6 µM (inactive)	0.242 µM (active)	3.1 µM (inactive)	0.748 µM (active)	9.68 µM (inactive)	2.86 µM (inactive)	1.16 µM (inactive)	1.77 µM (inactive)	13.6 µM	4.97 µM (inactive)	1.9 µM (inactive)	3 µM (inactive)	7.73 µM (inactive)	32.1 µM (inactive)	24.5 µM (inactive)	8.63 µM (inactive)	15.2 µM (inactive)	45.6 µM (inactive)	1.57 µM (inactive)	2.28 µM (inactive)

— ChEMBL document CHEMBL1201862, “PubChem BioAssay data set” (2004)
